Data reported in article PMC5308787, “Isoprenoid-phospholipid conjugates as potential therapeutic agents: Synthesis, characterization and antiproliferative studies” (PLoS ONE, 2017).

Columns and labels:
[1] = test system: MV4-11 (human biphenotypic B myelomonocytic leukaemia); assay: Antiproliferative MTT assay, 72 h exposure; assay type: cell-based
Experimental: (§1) The biological studies were performed in vitro using human cancer cell lines: MV4-11 (human biphenotypic B myelomonocytic leukaemia), A-549 (non-small cell lung cancer), MCF-7 (breast cancer), LoVo (colon cancer), LoVo/DX (colon cancer drug resistant), HepG2 (liver cancer) and BALB/3T3 (normal mice fibroblasts). These lines were obtained from American Type Culture Collection (Rockville, Maryland, U.S.A.). The cell line is being maintained in the Institute of Immunology and Experimental Therapy, Wroclaw, Poland. All cell lines were grown at 37°C with 5% CO2 humidified atmosphere and were cultured in cultured medium according to the method described before.
(§2) Prior to usage, the compounds were dissolved in DMSO or in mixture of 99.8% ethanol and DMSO (1:1) to the concentration of 25 or 50 mM, and subsequently diluted in culture medium to reach the required concentrations (ranging from 5 to 625 μM).
(§3) Twenty-four hours prior to the addition of tested compounds, the cells were plated in 96-well plates (Sarstedt, Germany) at a density of 1 × 10^4 cells per well in 100 μL of culture medium. The assay was performed after 72 h of exposure to varying concentrations of the tested agents. The in vitro cytotoxic effect of tested agents was examined using the MTT (for MV4-11 cells) or SRB assay which were described previously. Each compound in each concentration was tested in triplicate in a single experiment, which was repeated 3–5 times.
(§4) The results of antiproliferative activity were given as IC50 values. Using this parameter we calculated also the resistance indexes (RI) dividing the IC50 values of selected compounds estimated for drug resistant cell LOVO/DX line by respective values designated for drug sensitive LoVo line. According to Harker et al. three categories of the cells could be distinguished: (a) the cells are drug-sensitive—if the ratio approaches 0–2; (b) the cells are moderately drug-resistant—if the ratio ranges from 2 to 10; (c) the cells are markedly drug-resistant—if the ratio is higher than 10.

[2] = test system: A-549 (non-small cell lung cancer); assay: Antiproliferative SRB assay, 72 h exposure; assay type: cell-based, human; settings: n.a. = no activity in concentration of 5, 25, 125, 625 μM
Experimental: as §1, §2, §3, §4

[3] = test system: HepG2 (liver cancer); assay: Antiproliferative SRB assay, 72 h exposure; assay type: cell-based, human; settings: n.a. = no activity in concentration of 5, 25, 125, 625 μM
Experimental: as §1, §2, §3, §4

[4] = test system: LoVo (colon cancer); assay: Antiproliferative SRB assay, 72 h exposure; assay type: cell-based, human; settings: SRB, 72 h, mean ± SD of 3–5 experiments, n.a. = no activity in concentration of 5, 25, 125, 625 μM
Experimental: as §1, §2, §3, §4

[5] = test system: LoVo/DX (colon cancer drug resistant); assay: Antiproliferative SRB assay, 72 h exposure; assay type: cell-based, human; settings: mean ± SD of 3–5 experiments, n.a. = no activity in concentration of 5, 25, 125, 625 μM
Experimental: as §1, §2, §3, §4

[6] = test system: MCF-7 (breast cancer); assay: Antiproliferative SRB assay, 72 h exposure; assay type: cell-based, human; settings: n.a. = no activity in concentration of 5, 25, 125, 625 μM
Experimental: as §1, §2, §3, §4

[7] = test system: drug resistant LOVO/DX line vs drug sensitive LoVo line; assay: Resistance index (RI): IC50 LOVO/DX divided by IC50 LoVo; assay type: cell-based, human; settings: for Resistance index (RI): RI = IC50 resistant line / IC50 non-resistant line, 0<RI<2 able to overcome drug resistance, 2<RI<10 moderate ability, RI>10 no influence
From the text: as §4

[8] = test system: BALB/3T3 (normal mice fibroblasts); assay: Antiproliferative SRB assay, 72 h exposure; assay type: cell-based; settings: n.a. = no activity in concentration of 5, 25, 125, 625 μM
Experimental: as §1, §2, §3, §4

[9] = Homo sapiens, MV4-11, mean ± SD of 3–5 independent experiments
[10] = Homo sapiens, A549, mean ± SD of 3–5 experiments
[11] = Homo sapiens, HepG2, mean ± SD of 3–5 experiments
[12] = Homo sapiens, MCF7, mean ± SD of 3–5 experiments
[13] = Mus musculus, BALB/3T3, mean ± SD of 3–5 experiments

Row | Compound | IC50 [1, 9] [µM] | IC50 [2, 10] [µM] | IC50 [3, 11] [µM] | IC50 ([4]; Homo sapiens, LoVo) [µM] | IC50 ([5]; Homo sapiens, LoVo/DX) [µM] | IC50 [6, 12] [µM] | Resistance index (RI) [7] | IC50 [8, 13] [µM] | IC50 ([1]; mean ± SD of 3–5 independent experiments) [µM] | IC50 ([2]; mean ± SD of 3–5 experiments) [µM] | IC50 ([3]; mean ± SD of 3–5 experiments) [µM] | IC50 [4] [µM] | IC50 [5] [µM] | IC50 ([6]; mean ± SD of 3–5 experiments) [µM] | IC50 ([8]; mean ± SD of 3–5 experiments) [µM] | able to overcome the barrier of P-gp-dependent resistance ([7]; judged from RI)
1 | C=CC(C)(CCC=C(C)C)CC(=O)O (stereo not drawn) [1 (GERA), 3,7-dimethyl-3-vinyloct-6-enoic acid] | 256 ± 86.1 | 301 ± 66.9 | 517 ± 98.3 | 329 ± 54.5 | 281 ± 13.6 | 310 ± 84 | 0.85 | – | – | – | – | – | – | – | – | –
2 | C=CC(C)(CC/C=C(\C)CCC=C(C)C)CC(=O)O (stereo not drawn) [2 (FARA), (E)-3,7,11-trimethyl-3-vinyldodeca-6,10-dienoic acid] | 153 ± 20.1 | 91 ± 11.5 | 267 ± 15.5 | 99.2 ± 26 | 87 ± 14.4 | 162 ± 5.9 | 0.88 | 230 ± 40.3 | – | – | – | – | – | – | – | –
3 | CCCC=C1C(C)(C)CCCC1(C)CC(=O)O (stereo not drawn) [3 (DAA), 2-(2-butylidene-1,3,3-trimethylcyclohexyl)-acetic acid] | 132 ± 52.7 | 150 ± 16.8 | 274 ± 12 | 173 ± 38.7 | 109 ± 16 | 231 ± 43.2 | 0.63 | 297 ± 14.4 | – | – | – | – | – | – | – | –
4 | C=CC(C)(CCCC(C)CCCC(C)CCCC(C)C)CC(=O)O (stereo not drawn) [4 (PHYTA), 3,7,11,15-Tetramethyl-3-vinylhexadecanoic acid] | 39.3 ± 5.85 | – | – | – | – | – | – | – | – | – | – | – | – | – | – | –
5 | N.N.[Cl][Pt][Cl] [Cisplatin, cisplatin, reference compound] | – | – | – | – | – | – | – | – | 1.3 ± 0.47 | 8.6 ± 0.7 | 2.38 ± 0.64 | 2.56 ± 0.35 | 3.17 ± 0.2 | 8.1 ± 0.03 | 4.2 ± 1.1 | –

Now from value to compound, other results behind:

Row | IC50 [1, 9] [µM] | IC50 [2, 10] [µM] | IC50 [3, 11] [µM] | IC50 ([4]; Homo sapiens, LoVo) [µM] | IC50 ([5]; Homo sapiens, LoVo/DX) [µM] | IC50 [6, 12] [µM] | Compound | Resistance index (RI) [7] | IC50 [8, 13] [µM] | IC50 ([1]; mean ± SD of 3–5 independent experiments) [µM] | IC50 ([2]; mean ± SD of 3–5 experiments) [µM] | IC50 ([3]; mean ± SD of 3–5 experiments) [µM] | IC50 [4] [µM] | IC50 [5] [µM] | IC50 ([6]; mean ± SD of 3–5 experiments) [µM] | IC50 ([8]; mean ± SD of 3–5 experiments) [µM] | able to overcome the barrier of P-gp-dependent resistance ([7]; judged from RI)
6 | 50.1 ± 3.5 | 263 ± 19.7 | 286.4 ± 1.3 | 230 ± 6.9 | 245 ± 19.7 | 209 ± 12.9 | C=CC(C)(CCC=C(C)C)CC(=O)OC[C@H](COP(=O)([O-])OCC[N+](C)(C)C)OC(=O)CC(C)(C=C)CCC=C(C)C (stereo partly drawn) [Compound 6a] | – | 280 ± 8.2 | – | – | – | – | – | – | – | –
7 | 38.6 ± 11.1 | 52.3 ± 1.9 | 56.7 ± 0.1 | 53.1 ± 3.6 | 56.9 ± 0.2 | 57.8 ± 2.6 | CCC/C=C1/C(C)(C)CCCC1(C)CC(=O)OC[C@H](COP(=O)([O-])OCC[N+](C)(C)C)OC(=O)CC1(C)CCCC(C)(C)/C1=C/CCC (stereo partly drawn) [Compound 6c, (2’R)-1’,2’-di{2-[(3R,2"E)-2"-butylidene-1",3",3"-trimethyl]cyclohexyl}acetyl-sn-glycero-3’-phospocholine + (2’R)-1’,2’-di{2-[(3S,2"E)-2"-butylidene-1",3",3"-trimethyl]cyclohexyl}acetyl-sn-glycero-3’-phospocholine] | – | 57.3 ± 0.3 | – | – | – | – | – | – | – | –
8 | 42.4 ± 9.52 | – | – | – | – | – | C=CC(C)(CCCC(C)CCCC(C)CCCC(C)C)CC(=O)OC[C@H](COP(=O)([O-])OCC[N+](C)(C)C)OC(=O)CC(C)(C=C)CCCC(C)CCCC(C)CCCC(C)C (stereo partly drawn) [Compound 6d] | – | – | – | – | – | – | – | – | – | –
9 | 95 ± 15.2 | 72.6 ± 1.6 | 159 ± 31.2 | 57.4 ± 0.7 | 154 ± 7.9 | 66.6 ± 4.2 | C=CC(C)(CCC=C(C)C)CC(=O)O[C@H](COC(=O)CCCCCCCCCCCCCCC)COP(=O)([O-])OCC[N+](C)(C)C (stereo partly drawn) [Compound 7a, (2’R)-1’-palmitoyl-2’-[(3R)-3,7-dimethyl-3-vinylocta-6-enyl]-sn-glycero-3’-phosphocholine + (2’R)-1’-palmitoyl-2’-[(3S)-3,7-dimethyl-3-vinylocta-6-enyl]-sn-glycero-3’-phosphocholine] | 1.91 | 246 ± 13.9 | – | – | – | – | – | – | – | exception
10 | 50.3 ± 5.37 | 111 ± 12.9 | 272 ± 24.7 | 251 ± 22.7 | 486 ± 17.4 | 98.7 ± 15.6 | C=CC(C)(CC/C=C(\C)CCC=C(C)C)CC(=O)O[C@H](COC(=O)CCCCCCCCCCCCCCC)COP(=O)([O-])OCC[N+](C)(C)C (stereo partly drawn) [Compound 7b, (2'R)-1’-palmitoyl-2’-[(3R,6E)-3,7,11-trimethyl-3-vinyldodeca-6,10-dienyl]-sn-glycero-3’-phosphocholine + (2'R)-1’-palmitoyl-2’-[(3S,6E)-3,7,11-trimethyl-3-vinyldodeca-6,10-dienyl]-sn-glycero-3’-phosphocholine] | 1.16 | 518 ± 69.8 | – | – | – | – | – | – | – | –
